Test results as given in ChEMBL document CHEMBL1201862, “PubChem BioAssay data set” (2004).
Calls of active or inactive are those of the source.

What was measured:
[1] = biological target: G-protein coupled receptor 55 (Homo sapiens, UniProt Q9Y2T6); test: selective activators of receptor GPR55 – imaging, U2OS cells, beta-arrestin-GFP redistribution, primary screen (AID 1961); type: functional
Bcl-2-like protein 10 = biological target: T1, Bcl-2-like protein 10 (Homo sapiens, UniProt Q9HD36); test: Bcl-B/TR3 peptide binding disruption – biochemical, fluorescence polarization, FITC-TR3 peptide, selectivity assay for Bfl-1 inhibitor project, primary screen (AID 748);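 note: fluorescence polarization from a fluorescein-labelled TR3 peptide binding purified Bcl-B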
T1 sequence (Q9HD36 whole entry): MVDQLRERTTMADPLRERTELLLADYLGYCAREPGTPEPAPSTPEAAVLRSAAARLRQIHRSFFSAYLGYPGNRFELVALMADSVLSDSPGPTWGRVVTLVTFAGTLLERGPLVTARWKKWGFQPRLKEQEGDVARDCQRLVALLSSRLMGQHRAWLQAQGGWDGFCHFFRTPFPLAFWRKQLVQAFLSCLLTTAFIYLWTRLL

[2] = biological target: T2, Mannose-6-phosphate isomerase (Homo sapiens, UniProt P34949); test: phosphomannose isomerase inhibition – biochemical, fluorescence intensity, confirmation (AID 1535)
T2 sequence (P34949 whole entry): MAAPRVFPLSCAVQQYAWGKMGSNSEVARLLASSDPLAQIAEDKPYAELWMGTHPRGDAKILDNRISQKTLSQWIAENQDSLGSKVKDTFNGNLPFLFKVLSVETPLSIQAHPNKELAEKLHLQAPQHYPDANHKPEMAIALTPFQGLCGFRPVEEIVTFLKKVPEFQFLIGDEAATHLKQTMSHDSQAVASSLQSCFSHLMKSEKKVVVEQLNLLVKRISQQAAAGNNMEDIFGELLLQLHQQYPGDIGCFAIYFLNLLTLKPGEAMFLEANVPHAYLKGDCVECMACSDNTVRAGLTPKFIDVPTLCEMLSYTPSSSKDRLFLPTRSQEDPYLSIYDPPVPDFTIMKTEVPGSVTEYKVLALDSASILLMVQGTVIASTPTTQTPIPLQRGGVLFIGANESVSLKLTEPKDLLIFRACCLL

Phosphomannomutase 2 = biological target: T3, Phosphomannomutase 2 (Homo sapiens, UniProt O15305); test: Counter screen SAR assay for PMM2 inhibitors via a fluorescence intensity assay. [Related pubchem assays (depositor defined):AID1545, AID1574]
T3 sequence (O15305 whole entry): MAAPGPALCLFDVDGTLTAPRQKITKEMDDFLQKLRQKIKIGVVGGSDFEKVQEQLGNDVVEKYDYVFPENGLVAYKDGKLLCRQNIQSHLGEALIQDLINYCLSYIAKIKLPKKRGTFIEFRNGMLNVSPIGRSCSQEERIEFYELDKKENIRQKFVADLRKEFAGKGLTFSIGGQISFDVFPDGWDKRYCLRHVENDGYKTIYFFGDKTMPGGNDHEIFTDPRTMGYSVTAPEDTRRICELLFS

[3] = biological target: Phosphoethanolamine/phosphocholine phosphatase (Homo sapiens, UniProt Q8TCT1); test: SAR assay for compounds that inhibit PHOSPHO1. [Related pubchem assays (depositor defined):AID1545, AID1565, AID1574]
[4] = biological target: T4, Alkaline phosphatase, tissue-nonspecific isozyme (Homo sapiens, UniProt P05186); test: potency against alkaline phosphatase TNAP – biochemical, luminescent, dose response, SAR follow-up (AID 1056)
T4 sequence (P05186 whole entry): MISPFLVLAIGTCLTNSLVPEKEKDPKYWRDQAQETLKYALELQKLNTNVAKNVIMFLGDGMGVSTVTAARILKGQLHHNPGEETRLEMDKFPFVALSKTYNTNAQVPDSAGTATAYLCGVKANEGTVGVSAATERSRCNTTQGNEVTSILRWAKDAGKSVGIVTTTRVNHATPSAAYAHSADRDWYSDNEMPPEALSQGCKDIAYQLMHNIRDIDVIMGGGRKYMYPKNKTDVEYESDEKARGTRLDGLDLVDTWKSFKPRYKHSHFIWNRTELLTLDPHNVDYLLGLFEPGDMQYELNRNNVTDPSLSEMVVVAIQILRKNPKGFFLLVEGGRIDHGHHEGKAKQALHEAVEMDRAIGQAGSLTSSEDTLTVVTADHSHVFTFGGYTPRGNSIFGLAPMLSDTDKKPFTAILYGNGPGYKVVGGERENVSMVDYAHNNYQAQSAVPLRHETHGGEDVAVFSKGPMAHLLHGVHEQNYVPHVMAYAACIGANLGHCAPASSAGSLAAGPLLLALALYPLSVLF

[5] = biological target: Peroxisome proliferator-activated receptor gamma/Nuclear receptor coactivator 2 (Homo sapiens, UniProt P37231); type: functional;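 note: agonist potency for raising coactivator recruitment to the receptor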
[6] = biological target: Peroxisome proliferator-activated receptor gamma/Nuclear receptor coactivator 1 (Homo sapiens, UniProt P37231); type: functional;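 note: agonist potency as compounds enhance coactivator SRC-1 recruitment to PPARgamma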
[7] = biological target: Peroxisome proliferator-activated receptor gamma/Nuclear receptor coactivator 3 (Homo sapiens, UniProt P37231); type: functional;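 note: agonist potency for raising coactivator recruitment to the receptor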
Trypsin = Trypsin (Sus scrofa, UniProt P00761); test: trypsin protease activity blockade – biochemical, quenched peptide fluorescence, cherry-pick, selectivity assay for Rce1 protease inhibitor project, dose response (AID 488789)
[8] = Luminescent dose response cell-based high throughput screening assay for inhibitors of the Janus kinase 2 mutant JAK2V617F. [Related pubchem assays: 1446 (Primary screen.), 1521 (Confirmation assay.), 1486 (Counter screen.)]; type: functional
Aminopeptidase N = biological target: T5, Aminopeptidase N (Plasmodium falciparum FcB1/Columbia, UniProt O96935); test: malaria alanyl aminopeptidase activity blockers – biochemical, fluorogenic H-Leu-NHMec substrate, 1536-well (AID 1445); parameters: species or system Plasmodium falciparum 3D7, 3D7
T5 sequence (O96935 whole entry): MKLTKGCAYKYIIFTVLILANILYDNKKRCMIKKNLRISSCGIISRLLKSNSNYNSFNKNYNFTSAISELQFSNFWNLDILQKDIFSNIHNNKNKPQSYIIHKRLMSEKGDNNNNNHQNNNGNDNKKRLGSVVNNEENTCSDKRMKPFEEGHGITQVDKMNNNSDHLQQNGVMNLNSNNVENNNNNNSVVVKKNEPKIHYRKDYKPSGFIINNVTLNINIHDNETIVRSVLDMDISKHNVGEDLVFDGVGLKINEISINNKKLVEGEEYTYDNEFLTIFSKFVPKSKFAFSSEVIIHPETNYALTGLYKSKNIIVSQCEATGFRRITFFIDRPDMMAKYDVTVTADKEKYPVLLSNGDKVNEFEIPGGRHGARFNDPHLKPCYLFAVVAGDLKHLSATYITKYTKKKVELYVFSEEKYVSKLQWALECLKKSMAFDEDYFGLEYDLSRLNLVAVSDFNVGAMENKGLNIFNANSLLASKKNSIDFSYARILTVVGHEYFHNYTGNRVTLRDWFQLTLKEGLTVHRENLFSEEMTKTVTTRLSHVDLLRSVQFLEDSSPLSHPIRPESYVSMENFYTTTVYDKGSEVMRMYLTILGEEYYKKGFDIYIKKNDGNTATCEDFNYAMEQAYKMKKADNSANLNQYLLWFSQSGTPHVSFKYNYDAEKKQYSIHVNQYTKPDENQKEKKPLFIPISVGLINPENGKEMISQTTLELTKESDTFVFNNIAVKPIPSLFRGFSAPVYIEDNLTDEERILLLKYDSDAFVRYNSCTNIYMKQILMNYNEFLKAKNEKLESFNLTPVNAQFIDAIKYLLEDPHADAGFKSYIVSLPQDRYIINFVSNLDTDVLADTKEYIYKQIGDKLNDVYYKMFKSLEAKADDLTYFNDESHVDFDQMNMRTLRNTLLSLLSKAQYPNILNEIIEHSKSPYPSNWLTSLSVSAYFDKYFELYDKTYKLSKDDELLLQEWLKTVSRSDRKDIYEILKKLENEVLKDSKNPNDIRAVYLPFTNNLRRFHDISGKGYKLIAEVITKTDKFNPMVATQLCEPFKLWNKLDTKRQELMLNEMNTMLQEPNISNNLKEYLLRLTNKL

[9] = Trypanosoma cruzi growth suppression in host cells – NIH3T3 host cells, beta-gal luminescence, confirmation (AID 2044); type: functional, cell-based;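 note: intracellular parasites grown in NIH/3T3 mouse fibroblasts as host cells; luminescent beta-galactosidase reporter signal from transgenic T. cruzi replicating inside host cells; inhibitors lower the luminescence signal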
[10] = NIH3T3 cell viability loss – ATP luminescence, mouse fibroblasts, counter-screen, dose response (AID 2010); type: functional, cell-based;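 note: cells exposed to compound for about 90 hours before reading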
[11] = THP-1 cell cytotoxicity, dose response, cytotoxicity control for non-replicating M. tuberculosis project (AID 489025); type: functional
[12] = HepG2 cell cytotoxicity, dose response, cytotoxicity control for non-replicating M. tuberculosis project (AID 489018); type: functional; conditions: Mycobacterium tuberculosis
[13] = Vero E6 cell cytotoxicity, dose response, cytotoxicity control for non-replicating M. tuberculosis project, secondary assay (AID 492998); type: functional, VeroE6; conditions: Vero C1008
cells = type: functional
Paired box protein Pax-8 = Paired box protein Pax-8 (Homo sapiens, UniProt Q06710); test: PAX8 transcriptional activity inhibition in RMG-I – RMG-I cells, luciferase, cherry-pick, dose response (AID 687027); type: functional, cell-based;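 note: luciferase reporter driven by Pax8 target thyroperoxidase promoter measured by SteadyGlo luminescence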

Peroxisome proliferator-activated receptor gamma/Nuclear receptor coactivator 2, sequence (P37231 whole entry): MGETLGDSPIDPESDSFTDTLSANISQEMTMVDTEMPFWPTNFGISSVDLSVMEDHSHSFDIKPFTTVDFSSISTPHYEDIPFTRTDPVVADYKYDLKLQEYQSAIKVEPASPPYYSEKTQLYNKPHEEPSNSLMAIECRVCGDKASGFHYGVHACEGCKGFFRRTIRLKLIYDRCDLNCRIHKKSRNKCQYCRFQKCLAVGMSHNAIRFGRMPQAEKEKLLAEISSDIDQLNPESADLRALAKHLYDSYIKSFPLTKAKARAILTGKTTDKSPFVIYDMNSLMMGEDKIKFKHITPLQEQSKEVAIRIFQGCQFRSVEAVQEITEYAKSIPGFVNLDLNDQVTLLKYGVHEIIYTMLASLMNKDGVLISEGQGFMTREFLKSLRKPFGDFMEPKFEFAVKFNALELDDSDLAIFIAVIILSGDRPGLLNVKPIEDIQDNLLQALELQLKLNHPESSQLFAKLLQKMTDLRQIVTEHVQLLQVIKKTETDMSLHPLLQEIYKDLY
Peroxisome proliferator-activated receptor gamma/Nuclear receptor coactivator 2, sequence (Q15596 whole entry, further chain): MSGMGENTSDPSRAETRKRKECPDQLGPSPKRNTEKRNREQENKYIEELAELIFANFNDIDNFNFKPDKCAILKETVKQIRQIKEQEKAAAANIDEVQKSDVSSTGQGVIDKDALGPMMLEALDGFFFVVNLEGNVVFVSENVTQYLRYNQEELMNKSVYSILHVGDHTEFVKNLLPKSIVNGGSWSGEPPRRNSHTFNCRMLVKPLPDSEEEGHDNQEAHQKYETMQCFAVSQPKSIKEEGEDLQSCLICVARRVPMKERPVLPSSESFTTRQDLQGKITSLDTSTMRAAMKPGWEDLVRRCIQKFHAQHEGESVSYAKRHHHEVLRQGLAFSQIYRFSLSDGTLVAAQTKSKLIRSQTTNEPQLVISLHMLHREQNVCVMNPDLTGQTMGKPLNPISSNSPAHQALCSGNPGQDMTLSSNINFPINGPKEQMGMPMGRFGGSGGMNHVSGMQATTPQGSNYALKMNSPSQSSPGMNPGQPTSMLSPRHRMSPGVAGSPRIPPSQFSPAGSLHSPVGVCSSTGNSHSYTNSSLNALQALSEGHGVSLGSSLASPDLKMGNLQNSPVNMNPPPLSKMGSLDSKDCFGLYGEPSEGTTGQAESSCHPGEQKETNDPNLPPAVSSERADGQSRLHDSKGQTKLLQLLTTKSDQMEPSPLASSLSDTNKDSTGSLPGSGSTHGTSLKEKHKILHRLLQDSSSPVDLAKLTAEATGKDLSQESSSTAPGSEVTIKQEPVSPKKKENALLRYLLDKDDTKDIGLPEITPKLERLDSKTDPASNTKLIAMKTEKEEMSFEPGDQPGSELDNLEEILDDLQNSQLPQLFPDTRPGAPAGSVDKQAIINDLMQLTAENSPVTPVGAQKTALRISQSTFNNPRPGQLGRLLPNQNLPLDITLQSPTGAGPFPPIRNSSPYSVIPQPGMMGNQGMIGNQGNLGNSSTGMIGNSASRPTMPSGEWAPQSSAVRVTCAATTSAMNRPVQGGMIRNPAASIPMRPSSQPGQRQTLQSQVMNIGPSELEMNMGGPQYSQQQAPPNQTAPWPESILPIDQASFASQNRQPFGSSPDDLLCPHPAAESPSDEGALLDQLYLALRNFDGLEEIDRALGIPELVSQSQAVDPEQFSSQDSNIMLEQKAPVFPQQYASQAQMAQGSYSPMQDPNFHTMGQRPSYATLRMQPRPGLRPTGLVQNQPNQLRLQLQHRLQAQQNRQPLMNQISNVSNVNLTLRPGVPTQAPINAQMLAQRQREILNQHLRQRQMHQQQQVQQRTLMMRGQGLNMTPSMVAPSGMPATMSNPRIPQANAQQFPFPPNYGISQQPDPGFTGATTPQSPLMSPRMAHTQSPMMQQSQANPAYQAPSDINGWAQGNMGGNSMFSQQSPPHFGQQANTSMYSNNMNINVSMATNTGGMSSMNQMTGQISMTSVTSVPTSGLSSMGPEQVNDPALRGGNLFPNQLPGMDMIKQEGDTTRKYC
Peroxisome proliferator-activated receptor gamma/Nuclear receptor coactivator 3, sequence (P37231 whole entry): as the sequence (P37231 whole entry) above
Peroxisome proliferator-activated receptor gamma/Nuclear receptor coactivator 3, sequence (Q9Y6Q9 whole entry, further chain): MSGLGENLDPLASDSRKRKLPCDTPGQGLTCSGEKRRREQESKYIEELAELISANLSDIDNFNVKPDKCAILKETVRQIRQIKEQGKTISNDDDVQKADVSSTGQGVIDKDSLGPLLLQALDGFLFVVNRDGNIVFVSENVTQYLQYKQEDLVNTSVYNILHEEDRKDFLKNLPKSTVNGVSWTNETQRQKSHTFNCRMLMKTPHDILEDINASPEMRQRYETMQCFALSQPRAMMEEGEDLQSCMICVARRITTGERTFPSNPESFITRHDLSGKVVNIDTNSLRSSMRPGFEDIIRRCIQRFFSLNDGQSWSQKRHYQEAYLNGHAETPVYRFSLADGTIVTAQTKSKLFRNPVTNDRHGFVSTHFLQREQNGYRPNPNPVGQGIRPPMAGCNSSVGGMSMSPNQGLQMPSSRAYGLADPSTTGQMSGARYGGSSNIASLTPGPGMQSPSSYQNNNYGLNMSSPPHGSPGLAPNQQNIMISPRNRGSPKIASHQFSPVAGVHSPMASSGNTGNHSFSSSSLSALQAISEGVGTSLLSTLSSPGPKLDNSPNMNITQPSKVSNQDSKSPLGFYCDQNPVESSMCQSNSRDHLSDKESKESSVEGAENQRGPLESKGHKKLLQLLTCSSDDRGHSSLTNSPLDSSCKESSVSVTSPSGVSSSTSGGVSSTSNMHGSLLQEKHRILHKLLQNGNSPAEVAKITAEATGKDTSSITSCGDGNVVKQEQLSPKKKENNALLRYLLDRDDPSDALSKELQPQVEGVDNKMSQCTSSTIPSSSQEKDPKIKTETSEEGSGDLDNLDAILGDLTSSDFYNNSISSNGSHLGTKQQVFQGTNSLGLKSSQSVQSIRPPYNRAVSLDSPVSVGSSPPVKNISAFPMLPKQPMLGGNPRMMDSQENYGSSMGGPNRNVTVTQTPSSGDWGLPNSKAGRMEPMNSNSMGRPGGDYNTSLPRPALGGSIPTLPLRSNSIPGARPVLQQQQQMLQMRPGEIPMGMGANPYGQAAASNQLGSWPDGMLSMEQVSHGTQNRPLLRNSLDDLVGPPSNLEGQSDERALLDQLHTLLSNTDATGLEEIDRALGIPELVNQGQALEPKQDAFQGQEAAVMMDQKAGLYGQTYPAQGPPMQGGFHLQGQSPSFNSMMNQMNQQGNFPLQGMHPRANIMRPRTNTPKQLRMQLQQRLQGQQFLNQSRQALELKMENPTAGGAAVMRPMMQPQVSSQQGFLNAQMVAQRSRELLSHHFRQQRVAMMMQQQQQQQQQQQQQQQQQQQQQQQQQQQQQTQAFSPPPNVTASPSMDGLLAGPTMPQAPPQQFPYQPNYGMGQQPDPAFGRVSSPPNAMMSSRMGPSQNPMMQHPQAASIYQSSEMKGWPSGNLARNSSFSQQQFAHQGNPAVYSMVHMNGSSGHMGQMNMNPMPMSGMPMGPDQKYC
Trypsin, sequence (P00761 whole entry): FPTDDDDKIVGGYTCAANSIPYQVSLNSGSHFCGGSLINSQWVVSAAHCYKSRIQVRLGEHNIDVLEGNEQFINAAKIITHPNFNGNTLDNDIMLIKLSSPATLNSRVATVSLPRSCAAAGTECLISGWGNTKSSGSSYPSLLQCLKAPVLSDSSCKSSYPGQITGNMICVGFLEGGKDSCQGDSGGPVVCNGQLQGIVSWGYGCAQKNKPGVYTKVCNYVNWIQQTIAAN
G-protein coupled receptor 55, sequence (Q9Y2T6 whole entry): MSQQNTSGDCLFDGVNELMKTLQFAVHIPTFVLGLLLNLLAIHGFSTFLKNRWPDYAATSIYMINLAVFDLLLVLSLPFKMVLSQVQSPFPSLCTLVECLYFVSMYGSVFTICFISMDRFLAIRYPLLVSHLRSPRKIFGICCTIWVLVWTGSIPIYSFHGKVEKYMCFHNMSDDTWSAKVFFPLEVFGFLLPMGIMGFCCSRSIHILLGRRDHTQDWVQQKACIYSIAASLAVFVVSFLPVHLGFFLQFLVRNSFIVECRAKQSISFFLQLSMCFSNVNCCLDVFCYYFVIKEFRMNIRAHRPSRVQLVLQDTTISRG
Phosphoethanolamine/phosphocholine phosphatase, sequence (Q8TCT1 whole entry): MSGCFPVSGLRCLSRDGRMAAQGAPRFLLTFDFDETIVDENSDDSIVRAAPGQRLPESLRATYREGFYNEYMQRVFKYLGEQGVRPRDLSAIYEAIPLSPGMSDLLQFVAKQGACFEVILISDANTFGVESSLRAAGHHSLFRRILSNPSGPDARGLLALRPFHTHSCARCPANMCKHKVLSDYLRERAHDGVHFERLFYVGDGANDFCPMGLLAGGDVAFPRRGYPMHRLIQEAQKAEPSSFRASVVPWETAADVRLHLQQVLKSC

With `CCCOc1ccc(/C=C2/C(=O)ON=C2C)cc1Cl` as the molecule, how does the EC50 [1] read?
The EC50 was > 32 µM (inactive).

Which IC50 (Bcl-2-like protein 10) does the source give for `COCCn1c(SCC(=O)Nc2ncc(Cl)c(C)c2Cl)nc2ccccc21` here?
The IC50 was 90.6 µM (inactive).

For `O=c1c2ccccc2sn1-c1ccc(Cl)c(S(=O)(=O)N2CCOCC2)c1`, which IC50 [2] is on record?
Its IC50 is 8.58 µM (active).

What about the IC50 (Phosphomannomutase 2) of the same molecule?
The IC50 was 55.3 µM (active).

And the IC50 [3]?
The IC50 was 1.07 µM (inactive).

What about the IC50 [4] of the same molecule?
The IC50 was > 100 µM (inactive).

What does the source list for `Cc1ccc(-c2cc(-c3ccccc3)c(C#N)c(Br)n2)cc1`?
EC50 [5]: 34.1 µM (not active); EC50 [6]: 58.7 µM (not active); EC50 [7]: 58.2 µM (not active); AC50 (Trypsin): 11.9 µM (active)

With `O=C(Nc1cccc(NC(=O)c2cccs2)c1)c1ccc([N+](=O)[O-])o1` as the molecule, how does the IC50 [8] read?
Its IC50 is 1.57 µM (active).

And the IC50 (Aminopeptidase N)?
Its IC50 is 49.8 µM (active).

What about the EC50 [9] of the same molecule?
Its EC50 is 0.104 µM (active).

And the EC50 [10]?
Its EC50 is > 60 µM (not active).

What about the CC50 [11] of the same molecule?
The CC50 was 7.45 µM (active).

And the CC50 [12]?
The CC50 was 11 µM (active).

And the CC50 [13]?
Its CC50 is 11.9 µM (active).

What about the IC50 (cells) of the same molecule?
The IC50 was 4.05 µM (active).

And the AC50 (Paired box protein Pax-8)?
The AC50 was 4.04 µM (active).
